How the values were obtained:
TdT [1] = target: T1, TdT (Homo sapiens, UniProt P04053); test: Screen of nucleotide analogue substrates for TdT-based DNA synthesis (NPU formulation with Apyrase); assay type: biochemical; details: for behavior with respect to TdT-based DNA synthesis (extension efficiency, rate, extension length distribution): natural nucleotides; for efficiency as substrate of TdT versus natural counterpart: analogues more positively charged than natural counterparts
Description: In the general scheme of the presently disclosed methods, the distribution of extension length by TdT is important to ensure efficient and reliable encoding of information into DNA. […] The following nucleotide analogues with the NPU formulation which included Apyrase were explored.

TdT [2] = target: T1, TdT; test: Chemical control of TdT extension by Apyrase on immobilized initiator oligo (PCR, agarose gel); assay type: biochemical; details: 0.001 U/μL Apyrase, 1 U/μL TdT, 4 minutes at room temperature
Protocol: According to an exemplary protocol of the present disclosure, an initiator oligonucleotide was first immobilized onto a surface, for example with the use of a 5 prime modified oligonucleotide onto aldehyde functionalized glass slides. After tethering the initiator to a solid support, the surface was treated to neutralize the chemical reactive groups such as aldehydes in this case, and to increase hydrophobicity.
Dilutions of nucleotides in solvents such as water or ethanol of the following concentration and types were prepared:
Each of these nucleotides were printed on an oligo spot with a liquid handling robot followed by printing of the enzymatic mix comprising TdT (Terminal deoxynucleotidyl transferase) and Apyrase. […]
Each of the synthesized DNA strands were released off the solid-support surface, in this exemplary embodiment, enzymatically, by the use of USER (Uracil-Specific Excision Reagent) enzyme which cleaves the uracils that are near the 5 prime distal end of the initial initiator oligonucleotide. These strands were subsequently PCR amplified and the number of synthesized nucleotides were evaluated by two methods: electrophoresis on agarose or PAGE gels for cursory bulk analysis and sequenced with next-generation sequencing platforms such as Illumina, Pacific Bioscience, and/or Oxford Nanopore for quantitative single-molecule analysis. […]

T1 sequence (P04053 whole entry, species assumed): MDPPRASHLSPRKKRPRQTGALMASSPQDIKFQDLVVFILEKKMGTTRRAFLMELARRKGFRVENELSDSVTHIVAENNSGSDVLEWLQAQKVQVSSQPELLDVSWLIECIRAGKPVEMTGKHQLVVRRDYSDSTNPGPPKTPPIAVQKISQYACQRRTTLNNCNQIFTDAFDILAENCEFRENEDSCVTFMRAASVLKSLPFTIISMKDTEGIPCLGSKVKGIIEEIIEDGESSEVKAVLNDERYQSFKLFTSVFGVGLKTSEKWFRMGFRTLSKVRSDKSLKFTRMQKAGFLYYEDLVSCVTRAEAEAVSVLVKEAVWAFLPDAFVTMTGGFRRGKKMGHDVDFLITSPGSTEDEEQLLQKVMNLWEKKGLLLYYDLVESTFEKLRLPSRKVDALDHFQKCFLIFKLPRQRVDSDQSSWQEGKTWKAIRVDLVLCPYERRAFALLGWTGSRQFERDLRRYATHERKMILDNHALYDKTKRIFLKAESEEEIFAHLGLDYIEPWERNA

Row | behavior with respect to TdT-based DNA synthesis (extension efficiency, rate, extension length distribution) (TdT [1]) | efficiency as substrate of TdT versus natural counterpart (TdT [1]) | Compound | also measured
1 | poorest behavior | – | Nc1ncnc2c1ncn2[C@H]1C[C@H](O)[C@@H](COP(=O)(O)OP(=O)(O)OP(=O)(O)O)O1 [dATP] | –
2 | poorest behavior | – | Cc1cn([C@H]2C[C@H](O)[C@@H](COP(=O)(O)OP(=O)(O)OP(=O)(O)O)O2)c(=O)[nH]c1=O [dTTP] | –
3 | – | far more efficient substrates of TdT | NCC#Cc1cn(C2CC(O)C(COP(=O)(O)OP(=O)(O)OP(=O)(O)O)O2)c(=O)[nH]c1=O (stereo not drawn) [5-Propargylamino-dUTP] | –
4 | – | – | Apyrase | effect on average amount of extension by TdT (TdT [2]): effectively limited the average amount of extension by TdT
5 | most optimal behavior | – | Nc1ccn([C@H]2C[C@H](O)[C@@H](COP(=O)(O)OP(=O)(O)OP(=O)(O)O)O2)c(=O)n1 [dCTP] | –
6 | – | far more efficient substrates of TdT | NC/C=C/c1cn(C2CC(O)C(COP(=O)(O)OP(=O)(O)OP(=O)(O)O)O2)c(=O)[nH]c1=O (stereo not drawn) [5-Aminoallyl-dUTP] | –
